Data reported in patent publication EP4722195A1, “PH-SENSITIVE CATIONIC LIPID AND LIPID NANOPARTICLES” (National University Corporation Hokkaido University, priority 2023, dated 2024).

Test system: proprotein convertase subtilisin/kexin type 9 (PCSK9)
Test: PCSK9-targeted genome editing in mice, serum PCSK9 (ELISA)
Format: in vivo, Balb/c mice
Settings: Example 34, Fig. 13
Description: Specifically, an RNA solution was first prepared to contain Cas9-mRNA (TriLink, 5moU-modified) and gRNA targeting proprotein convertase subtilisin/kexin type 9 (PCSK9) (SEQ ID NO: 3) at a mass ratio of 1:2 (N/P = 6.0). Using this RNA solution, in the same manner as Example 32, lipid nanoparticles encapsulating Cas9-mRNA and PCSK9-gRNA and having a composition of TxT-5-SA14/DSPC/chol/PEG-DMG = 50/3/47/1.5 (mol%) were prepared (lipid nanoparticles for PCSK9-targeted genome editing). […]
Subsequently, the prepared lipid nanoparticles for PCSK9-targeted genome editing were administered via tail vein injection to female Balb/c mice (4 weeks old) at doses of 0.3, 1.0, and 2.0 mg RNA/kg. […] The collected blood was allowed to stand at room temperature for 1 hour, followed by centrifugation at 4°C, 1,000 × g for 10 minutes. The supernatant was collected to obtain serum. The concentration of PCSK9 in the serum was measured using a commercially available ELISA kit (Mouse/Rat PCSK9 ELISA Kit, CircuLex). Calibration samples were prepared by serial dilution from 6 ng/mL to obtain solutions of 3, 1.5, 0.75, 0.375, 0.188, and 0.094 ng/mL, each in 300 µL volumes. Serum samples were diluted 100-fold. […] Finally, 100 µL of Stop Solution (CircuLex) was added, and absorbance at 450 nm and 540 nm was measured using a spectrophotometer (Varioskan Lux, Thermo Fisher Scientific).

Compound: CCCCCCCN(CCCCCCC)C(=O)CCCC(=O)OCC(COC(=O)CCCC(=O)N(CCCCCCC)CCCCCCC)(COC(=O)CCCC(=O)N(CCCCCCC)CCCCCCC)NC(=O)CCN1CCCCC1 [TxT-5-5A14, 2-(((5-(diheptylamino)-5-oxopentanoyl)oxy)methyl)-2-(3-(piperidin-1-yl)propanamido)propane-1,3-diyl bis(5-(diheptylamino)-5-oxopentanoate)]
- PCSK9 knockout efficiency versus dose (0.3, 1.0, and 2.0 mg RNA/kg): dose-dependent increase in PCSK9 knockout efficiency
- PCSK9 knockout activity (dose of 2.0 mg RNA/kg tail vein, serum PCSK9 ten days after administration, N = 3 to 6): no less than 90%
